From patent US10765716B2, “Obesity treatment” (priority 2017, dated 2020)

Assays:
Type in all cases: in vivo, male Wistar rats
[1] = tested on: high-fat diet induced obese rats; test: Renal and liver toxicity assessment after 12 weeks of treatment period
Protocol: Whereas for therapeutic studies the animal groups were as follow: Group 1 (TA), Control; animals in this group received LFD, and distilled water Group 2 (TC), Pathological control; animals in this group received HFD, and distilled water. Groups 3 (TO), High fat diet induced obese animals in this group received standard drug Orlistat (100 mg/kg/day). Group 4 (TS): High fat diet induced obese animals in this group received standard drug Sibutramine (5 mg/kg/day), Group 5 (TC1): High fat diet induced obese animals in this group received C. latifolia extract (150 mg/kg/day). Group 6 (FC2) High fat diet induced obese animals in this group received C. latifolia extract (300 mg/kg/day). […]
Blood glucose, serum insulin, total cholesterol, triglycerides, HDL, LDL, very low density lipoproteins […], urea, creatinine, aspartate aminotransferase […], alkaline phosphatase (ALP), serum glutamic pyruvic transaminase (SGPT), and direct and total bilirubin were estimated. Fasting blood glucose levels were measured using glucometer (AccuChek Performa, Australia). Fasting insulin levels were quantified using ultra sensitive rat insulin ELISA kit (Crystal Chem. Downers Grove, USA). Insulin sensitivity was evaluated using Homeostatic Model Assessment (HOMA). […]

[2] = tested on: high-fat diet induced obese rats; test: Therapeutic study: high-fat diet induced obese rats treated for 12 weeks (food intake, body weight, lipid profile, fasting blood glucose, leptin, insulin, histology); settings: for average food intake (in words): therapeutic study 12 weeks, Orlistat (TO), Sibutramine (TS), extract (TC1 and TC2)
Protocol: (§1) The crude extracts of C. latifolia were suspended in distilled water before its administration to the rat models. Orlistat and Sibutramine were used as standard drugs at doses of 100 mg/kg, and 5 mg/kg, respectively (dissolved in distilled water).
(§2) Thirty male Wistar rats (210-220 g) were obtained from the animal house facility of Dr. Panjwani Center for Molecular Medicine and Drug Research (ICCBS). All animals were kept under standard conditions of temperature and humidity with a 12 h light/dark cycle, approved by the Ethical Committee of International Center for Chemical and Biological Sciences (Protocol number: 2013-0001). After one week of acclimation period, rats were randomly divided into […]. The control group was fed with normal diet (D12450B, Research Diets, USA), whereas the other groups were fed high-fat diet (D12451, Research Diets, USA) for a period of 16-week. After 10 weeks, biochemical parameters were evaluated regularly to establish whether the model has developed the symptoms of metabolic syndrome. […]
(§3) Body weights were recorded weekly throughout the experiment. The food intake was calculated by using following formula, as described by Ghezzi et al, 2012: […]
(§4) Blood glucose, serum insulin, total cholesterol, triglycerides, HDL, LDL, very low density lipoproteins […], urea, creatinine, aspartate aminotransferase […], alkaline phosphatase (ALP), serum glutamic pyruvic transaminase (SGPT), and direct and total bilirubin were estimated. Fasting blood glucose levels were measured using glucometer (AccuChek Performa, Australia). Fasting insulin levels were quantified using ultra sensitive rat insulin ELISA kit (Crystal Chem. Downers Grove, USA). Insulin sensitivity was evaluated using Homeostatic Model Assessment (HOMA). Serum total cholesterol, triglycerides, HDL, LDL, VLDL, urea, creatinine, AST, ALP, SGPT, and direct and total bilirubin were analyzed using automatic analyzer (Hitachi, Roche Diagnostics 902, Tokyo, Japan).

[3] = tested on: high fat diet rats; test: Preventive study: high fat diet rats given extract or standard drugs for 8 weeks (food intake, body weight, lipid profile, fasting blood glucose, liver histology); settings: preventive study 8 weeks
Protocol: as §1, §2, §3, §4

With `CCCCCCCCCCC[C@@H](C[C@@H]1OC(=O)[C@H]1CCCCCC)OC(=O)[C@H](CC(C)C)NC=O` [Orlistat] the Direct bilirubin ([1]; rat, in vivo, 100 mg/kg) was 0.06 ± 0.008 mg/dL, the “average food intake (in words)” value [2] was “decrease” and the “FBG (fasting blood glucose)” value ([3]; 100 mg/kg (PO)) was 79 ± 1.04 mg/dL.
`CC(C)CC(N(C)C)C1(c2ccc(Cl)cc2)CCC1` (centres unmarked) [Sibutramine] was tested, and the Direct bilirubin ([1]; liver toxicity, after 12 weeks of treatment, 5 mg/kg (TS)) was 0.03 ± 0.004 mg/dL, the “FBG (fasting blood glucose)” value ([2]; after 12 weeks of treatment, 5 mg/kg (TS)) was 80 ± 0.12 mg/dL and the “average food intake (in words)” value [2] was “decrease”. The “FBG (fasting blood glucose)” value ([3]; 5 mg/kg (PS)) was 76 ± 2.12 mg/dL and the Triglyceride ([3]; serum, 5 mg/kg (PS)) was 51 ± 0.19 mg/dL.
